# Source: patent US5849729A, “Use of hydrolyzed cocoa butter for percutaneous absorption” (Hershey Foods Corporation, priority 1995, dated 1998)
# Values joined by “and” are separate entries in the source; they are usually repeats but may differ in a detail not shown here. Equal values may be shown once.
# Columns and labels:
# [1] = In-vitro percutaneous absorption of retinoic acid and triamcinolone acetonide from two cocoa butter vehicles (Franz cells, 48 h); conditions: for % Abs (% Absorbed) / % Absorbed / total absorption: percent of applied dose
# Excerpt: The objective of this study was to measure the permeation of retinoic acid and triamcinolone acetonide through human skin in-vitro from two cocoa butter vehicles.
# Two cocoa butter vehicles supplied by Hershey Foods Corporation were utilized: (1) pure cocoa butter and (2) partially hydrolyzed cocoa butter emulsion. Radioactive [11,12-^3 H] [retinoic acid (NET 920, Lot 2930-067, specific activity 1 mCi/ml) and [6,7-^3 H]-triamcinolone acetonide (NET 470, Lot 2904-170, specific activity 1 mCi/ml) were obtained from Dupont-New England Nuclear Corporation, Boston, Mass.
# Each of the two cocoa butter vehicles was spiked separately with ^3 H-retinoic acid and ^3 H-Triamcinolone acetonide to give a total of four radioactive formulations for study. This was done by adding 25 μl (containing 25 μCi) of each tracer solution to approximately 1 gram of each vehicle and mixing with the tip of the dispensing micropipette. The pure cocoa butter vehicle was liquified by holding it under warm tap water prior to spiking. This was not done with the partially hydrolyzed cocoa butter emulsion. Neither formulation was used for three days after spiking to allow for diffusional mixing to take place. Final radioactive concentrations of each formulation were: […]
# Human trunk skin without obvious signs of disease was used throughout. It was obtained within 24 hours of death, dermatomed to a thickness of approximately 0.25 mm, cryopreserved and sealed in water vapor-impermeableplastic bags. It was stored at -70° C. until the day of use then thawed by placing the bag in 37° C. water.
# Skin from a single donor was cut into multiple sections large enough to fit on 0.8 cm^2 Franz cells. The dermal chamber was filled with isotonic saline, pH 7.4, into which a small magnetic stirring bar was placed. The epidermal chamber was left open to the ambient laboratory environment, approximately 22° C. and 40-60% RH. The cells were placed in a diffusion apparatus in which the dermal receptor solution was stirred magnetically at 600 RPM and its temperature maintained at 37° C.
# To assure the integrity of each skin section, its permeability to tritiated water was determined before application of the test formulations. Following a brief (0.5-1 hour) equilibration period, 150 μl ^3 H2 O (specific activity 0.3 μCi/ml) was layered across the top of the skin section so that the entire exposed surface was covered. After 5 minutes the aqueous layer was removed and the surface of the skin carefully blotted dry. At t=0.5 hour the saline receptor phase was removed and analyzed for radioactive content by liquid scintillation counting. Skin specimens in which absorption of ^3 H2 O was less than 1.25 μl were considered acceptable.
# Subsequently, each test formulation was applied at a target dose of 10 mg (cream) or 10 μl (butter). The cream formulation (partially hydrolyzed cocoa butter emulsion) was applied from the smooth, rounded-tip of a glass rod, the exact amount determined by weighing the rod before and after application. The butter formulation (pure cocoa butter) was first liquified under warm tap water, allowed to cool to room temperature, then applied with a 10 μl positive displacement micropipette prior to resolidifying. At 4, 8, 12, 24, 36 and 48 hours the receptor solution was removed in its entirety, replaced with fresh solution, and a 1 ml aliquot taken and assayed for radioactive content by liquid scintillation counting.
# A 1 ml aliquot of each receptor sample containing ^3 H2 O, ^3 H-retinoic acid, or ^3 H-triamcinolone acetonide was placed in a 7 ml glass scintillation vial and gelled by the addition of 5 ml Opti-Fluor (Packard Instrument Co., Meriden, Conn.). These were counted in a Packard Tri-Carb Model 1900CA Liquid scintillation Analyzer equipped with internal standard and automatic quench correction.
# [2] = currently available / commercial formulations, trunk skin; cited from earlier work
# [3] = cream (partially hydrolyzed cocoa butter emulsion), 48 h, individual skin sections
# [4] = cream, 48 h, average of three donors
# [5] = cream, 48 h, average per skin donor (n=4), listed as RETINOIC ACID
# [6] = cream, 48 h, average per skin donor (n=4), listed as Retinoic Acid
structure (smiles),measurement,setting,value
CC1=C(/C=C/C(C)=C/C=C/C(C)=C/C(=O)O)C(C)(C)CCC1 [retinoic acid],Penet (Total Penetration),[1]; [3],824.73 and 721.36 and 745.68 and 808.17 and 1027.61 and 945.49 and 550.30 and 524.77 and 919.75 and 670.20 and 859.80 and 1068.35
same,% Abs (% Absorbed),[1]; [3],14.03% and 14.76% and 13.59% and 17.11% and 17.20% and 15.81% and 13.56% and 15.67% and 21.00% and 18.37% and 18.57% and 20.67%
same,"Rate of absorption, R1","[1]; cream (partially hydrolyzed cocoa butter emulsion), sample R1, mid-t 2 h, individual skin sections",40.91 ng/cm^2 /hr and 36.94 ng/cm^2 /hr and 38.12 ng/cm^2 /hr and 45.28 ng/cm^2 /hr and 74.50 ng/cm^2 /hr and 68.54 ng/cm^2 /hr and 46.23 ng/cm^2 /hr and 49.65 ng/cm^2 /hr and 16.18 ng/cm^2 /hr and 50.09 ng/cm^2 /hr and 69.86 ng/cm^2 /hr and 77.41 ng/cm^2 /hr
same,"Rate of absorption, R3","[1]; cream (partially hydrolyzed cocoa butter emulsion), sample R3, mid-t 10 h, individual skin sections",23.20 ng/cm^2 /hr and 19.99 ng/cm^2 /hr and 20.80 ng/cm^2 /hr and 24.15 ng/cm^2 /hr and 28.97 ng/cm^2 /hr and 25.18 ng/cm^2 /hr and 16.74 ng/cm^2 /hr and 15.77 ng/cm^2 /hr and 27.41 ng/cm^2 /hr and 19.26 ng/cm^2 /hr and 26.16 ng/cm^2 /hr and 30.74 ng/cm^2 /hr
same,"Rate of absorption, R4","[1]; cream (partially hydrolyzed cocoa butter emulsion), sample R4, mid-t 18 h, individual skin sections",17.83 ng/cm^2 /hr and 16.44 ng/cm^2 /hr and 14.68 ng/cm^2 /hr and 15.42 ng/cm^2 /hr and 27.53 ng/cm^2 /hr and 24.05 ng/cm^2 /hr and 12.20 ng/cm^2 /hr and 11.56 ng/cm^2 /hr and 26.23 ng/cm^2 /hr and 18.49 ng/cm^2 /hr and 25.34 ng/cm^2 /hr and 30.20 ng/cm^2 /hr
same,"Rate of absorption, R5","[1]; cream (partially hydrolyzed cocoa butter emulsion), sample R5, mid-t 30 h, individual skin sections",14.89 ng/cm^2 /hr and 15.68 ng/cm^2 /hr and 17.30 ng/cm^2 /hr and 17.77 ng/cm^2 /hr and 15.95 ng/cm^2 /hr and 14.81 ng/cm^2 /hr and 8.32 ng/cm^2 /hr and 7.95 ng/cm^2 /hr and 15.24 ng/cm^2 /hr and 11.88 ng/cm^2 /hr and 12.50 ng/cm^2 /hr and 19.16 ng/cm^2 /hr
same,"Rate of absorption, R6","[1]; cream (partially hydrolyzed cocoa butter emulsion), sample R6, mid-t 42 h, individual skin sections",20.33 ng/cm^2 /hr and 14.24 ng/cm^2 /hr and 14.46 ng/cm^2 /hr and 17.62 ng/cm^2 /hr and 16.38 ng/cm^2 /hr and 15.16 ng/cm^2 /hr and 8.78 ng/cm^2 /hr and 7.68 ng/cm^2 /hr and 13.21 ng/cm^2 /hr and 9.49 ng/cm^2 /hr and 10.20 ng/cm^2 /hr and 14.22 ng/cm^2 /hr
same,Total Penetration,[1]; [4],805.52
same,Penet (Total Penetration),[1]; [5],774.99 and 762.04 and 879.52
same,Penet (Total Penetration),[1]; [6],879.52 and 762.04 and 774.99
same,"Rate of absorption, R1","[1]; cream, R1, mid-t 2 h, average of three donors",55.06 ng/cm^2 /hr
same,"Rate of absorption, R1","[1]; cream, R1, mid-t 2 h, average per skin donor (n=4), listed as RETINOIC ACID",40.32 ng/cm^2 /hr and 59.73 ng/cm^2 /hr and 65.14 ng/cm^2 /hr
same,"Rate of absorption, R1","[1]; cream, R1, mid-t 2 h, average per skin donor (n=4), listed as Retinoic Acid",65.14 ng/cm^2 /hr and 59.73 ng/cm^2 /hr and 40.32 ng/cm^2 /hr
same,"Rate of absorption, R3","[1]; cream, R3, mid-t 10 h, average of three donors",23.20 ng/cm^2 /hr
same,"Rate of absorption, R3","[1]; cream, R3, mid-t 10 h, average per skin donor (n=4), listed as RETINOIC ACID",22.04 ng/cm^2 /hr and 21.67 ng/cm^2 /hr and 25.89 ng/cm^2 /hr
same,"Rate of absorption, R3","[1]; cream, R3, mid-t 10 h, average per skin donor (n=4), listed as Retinoic Acid",25.89 ng/cm^2 /hr and 21.67 ng/cm^2 /hr and 22.04 ng/cm^2 /hr
same,"Rate of absorption, R4","[1]; cream, R4, mid-t 18 h, average of three donors",20.00 ng/cm^2 /hr
same,"Rate of absorption, R4","[1]; cream, R4, mid-t 18 h, average per skin donor (n=4), listed as RETINOIC ACID",16.09 ng/cm^2 /hr and 18.83 ng/cm^2 /hr and 25.07 ng/cm^2 /hr
same,"Rate of absorption, R4","[1]; cream, R4, mid-t 18 h, average per skin donor (n=4), listed as Retinoic Acid",25.07 ng/cm^2 /hr and 18.83 ng/cm^2 /hr and 16.09 ng/cm^2 /hr
same,"Rate of absorption, R5","[1]; cream, R5, mid-t 30 h, average of three donors",14.29 ng/cm^2 /hr
same,"Rate of absorption, R5","[1]; cream, R5, mid-t 30 h, average per skin donor (n=4), listed as RETINOIC ACID",16.41 ng/cm^2 /hr and 11.76 ng/cm^2 /hr and 14.70 ng/cm^2 /hr
same,"Rate of absorption, R5","[1]; cream, R5, mid-t 30 h, average per skin donor (n=4), listed as Retinoic Acid",14.70 ng/cm^2 /hr and 11.76 ng/cm^2 /hr and 16.41 ng/cm^2 /hr
same,"Rate of absorption, R6","[1]; cream, R6, mid-t 42 h, average of three donors",13.47 ng/cm^2 /hr
same,"Rate of absorption, R6","[1]; cream, R6, mid-t 42 h, average per skin donor (n=4), listed as RETINOIC ACID",16.62 ng/cm^2 /hr and 12.00 ng/cm^2 /hr and 11.78 ng/cm^2 /hr
same,"Rate of absorption, R6","[1]; cream, R6, mid-t 42 h, average per skin donor (n=4), listed as Retinoic Acid",11.78 ng/cm^2 /hr and 12.00 ng/cm^2 /hr and 16.62 ng/cm^2 /hr
same,% Absorbed / total absorption,[1]; [4],16.7%
same,% Absorbed / total absorption,"[1]; cream, 48 h, average of three donors, listed as Retinoic Acid",16.69%
same,% Abs (% Absorbed),[1]; [5],14.87% and 15.56% and 19.65%
same,% Abs (% Absorbed),[1]; [6],19.65% and 15.56% and 14.87%
same,difference between partially hydrolyzed cocoa butter emulsion and pure cocoa butter as delivery vehicle,[1]; in words,no appreciable difference
same,average absorption,[1]; with cocoa butter and partially hydrolyzed cocoa butter emulsion (both vehicles),16.5%
same,total absorption from currently available formulations,[2],1-5 % of the dose
